The values below come from PubChem BioAssay AID1259407 (Chemical Carcinogenesis Research Information System (CCRIS), 2018).

Each structure is given as a SMILES string. Active and inactive are the calls of the source. The rule behind the calls is not given here.

The series has as its system CCRIS mutagenicity, Ames/micronucleus/aberration tests. Put plainly: CCRIS mutagenicity studies.
[1] abbreviates: Test System: AMES SALMONELLA TYPHIMURIUM, Strain/Indicator: TA98, Metabolic Activation: HAMSTER, LIVER, S-9, AROCLOR 1254, Method: STANDARD PLATE.
Where [2] appears, read: Test System: AMES SALMONELLA TYPHIMURIUM, Strain/Indicator: TA98, Metabolic Activation: NONE, Method: STANDARD PLATE.
Where [3] appears, read: Test System: AMES SALMONELLA TYPHIMURIUM, Strain/Indicator: TA98, Metabolic Activation: RAT, LIVER, S-9, AROCLOR 1254, Method: STANDARD PLATE.
The mark [4] stands for this setting: Test System: AMES SALMONELLA TYPHIMURIUM, Strain/Indicator: TA100, Metabolic Activation: HAMSTER, LIVER, S-9, AROCLOR 1254, Method: STANDARD PLATE.
[5] abbreviates: Test System: AMES SALMONELLA TYPHIMURIUM, Strain/Indicator: TA100, Metabolic Activation: NONE, Method: STANDARD PLATE.
The mark [6] stands for this setting: Test System: AMES SALMONELLA TYPHIMURIUM, Strain/Indicator: TA100, Metabolic Activation: RAT, LIVER, S-9, AROCLOR 1254, Method: STANDARD PLATE.
Setting [7] is: Test System: AMES SALMONELLA TYPHIMURIUM, Strain/Indicator: TA1535, Metabolic Activation: HAMSTER, LIVER, S-9, AROCLOR 1254, Method: STANDARD PLATE.
[8] abbreviates: Test System: AMES SALMONELLA TYPHIMURIUM, Strain/Indicator: TA1535, Metabolic Activation: NONE, Method: STANDARD PLATE.
The mark [9] stands for this setting: Test System: AMES SALMONELLA TYPHIMURIUM, Strain/Indicator: TA1535, Metabolic Activation: RAT, LIVER, S-9, AROCLOR 1254, Method: STANDARD PLATE.
Where [10] appears, read: Test System: AMES SALMONELLA TYPHIMURIUM, Strain/Indicator: TA1537, Metabolic Activation: HAMSTER, LIVER, S-9, AROCLOR 1254, Method: STANDARD PLATE.
Where [11] appears, read: Test System: AMES SALMONELLA TYPHIMURIUM, Strain/Indicator: TA1537, Metabolic Activation: NONE, Method: STANDARD PLATE.
[12] abbreviates: Test System: AMES SALMONELLA TYPHIMURIUM, Strain/Indicator: TA1537, Metabolic Activation: RAT, LIVER, S-9, AROCLOR 1254, Method: STANDARD PLATE.
Setting [13] is: Test System: AMES SALMONELLA TYPHIMURIUM, Strain/Indicator: TA1538, Metabolic Activation: HAMSTER, LIVER, S-9, AROCLOR 1254, Method: STANDARD PLATE.
Where [14] appears, read: Test System: AMES SALMONELLA TYPHIMURIUM, Strain/Indicator: TA1538, Metabolic Activation: NONE, Method: STANDARD PLATE.
The mark [15] stands for this setting: Test System: AMES SALMONELLA TYPHIMURIUM, Strain/Indicator: TA1538, Metabolic Activation: RAT, LIVER, S-9, AROCLOR 1254, Method: STANDARD PLATE.

Take `CC1=Nc2ccccc2C1(C)C`: the mutagenic call under setting [1] was “inactive; negative”; the mutagenic call under setting [2] was “inactive; negative”; the mutagenic call under setting [3] is “inactive; negative”; the mutagenic call under setting [4] was “inactive; negative”; the mutagenic call under setting [5] was “inactive; negative”; the mutagenic call under setting [6] was “inactive; negative”. Further, the mutagenic call under setting [7] is “inactive; negative”; the mutagenic call under setting [8] was “inactive; negative”; the mutagenic call under setting [9] was “inactive; negative”; the mutagenic call under setting [10] was “inactive; negative”; the mutagenic call under setting [11] is “inactive; negative”; the mutagenic call under setting [12] is “inactive; negative”. Moreover, the mutagenic call is “inactive; negative” under setting [13]; “inactive; negative” under setting [14]; “inactive; negative” under setting [15]; “inactive; positive. reevaluation of results: negative” (Test System: MOUSE LYMPHOMA, Strain/Indicator: L5178Y (TK+/TK-), Metabolic Activation: NONE, Method: SUSPENSION/PLATE); “active; positive. reevaluation of results: inconclusive” (Test System: MOUSE LYMPHOMA, Strain/Indicator: L5178Y (TK+/TK-), Metabolic Activation: RAT, LIVER, S-9, AROCLOR 1254, Method: SUSPENSION/PLATE).

As for `O=C(O)/C(Cl)=C(/CCl)C(=O)O`, the mutagenic call reads like this: (Test System: AMES SALMONELLA TYPHIMURIUM, Strain/Indicator: TA98, Metabolic Activation: NONE, Method: PREINCUBATION) “inactive; negative”; (Test System: AMES SALMONELLA TYPHIMURIUM, Strain/Indicator: TA100, Metabolic Activation: NONE, Method: PREINCUBATION) “inactive; negative”; (Test System: AMES SALMONELLA TYPHIMURIUM, Strain/Indicator: TA104, Metabolic Activation: NONE, Method: PREINCUBATION) “inactive; negative”.

As for `O=C1NC(=O)C2CC=CCC12` (configuration not stated), the mutagenic call (Test System: AMES SALMONELLA TYPHIMURIUM, Strain/Indicator: TA102, Metabolic Activation: NONE, Method: STANDARD PLATE) was “inactive; negative”; the mutagenic call (Test System: AMES SALMONELLA TYPHIMURIUM, Strain/Indicator: TA102, Metabolic Activation: RAT, LIVER, S-9, PHENOBARBITAL, Method: STANDARD PLATE) was “inactive; negative”; the mutagenic call (Test System: AMES SALMONELLA TYPHIMURIUM, Strain/Indicator: TA104, Metabolic Activation: NONE, Method: STANDARD PLATE) is “inactive; negative”; the mutagenic call (Test System: AMES SALMONELLA TYPHIMURIUM, Strain/Indicator: TA104, Metabolic Activation: RAT, LIVER, S-9, PHENOBARBITAL, Method: STANDARD PLATE) is “inactive; negative”.

As to `CSC[C@H](NC(=O)COc1cccc2cnccc12)C(=O)N[C@@H](Cc1ccccc1)[C@H](O)C(=O)N1CSC[C@H]1C(=O)NC(C)(C)C`, the mutagenic call reads like this: under setting [1], “inactive; negative”; under setting [2], “inactive; negative”; under setting [3], “inactive; negative”; under setting [4], “inactive; negative”; under setting [5], “inactive; negative”; under setting [6], “inactive; negative”. Moreover, the mutagenic call under setting [7] is “inactive; negative”; the mutagenic call under setting [8] was “inactive; negative”; the mutagenic call under setting [9] was “inactive; negative”; the mutagenic call under setting [10] was “inactive; negative”; the mutagenic call under setting [11] was “inactive; negative”; the mutagenic call under setting [12] is “inactive; negative”. In addition, the mutagenic call is, setting by setting: under setting [13], “inactive; negative”; under setting [14], “inactive; negative”; under setting [15], “inactive; negative”; (Test System: Mouse lymphoma, Strain/Indicator: L5178Y (tk+/tk-), Metabolic Activation: None, Method: Suspension/plate) “inactive; negative”; (Test System: Mouse lymphoma, Strain/Indicator: L5178Y (tk+/tk-), Metabolic Activation: Rat, Liver, S-9, Aroclor 1254, Method: Suspension/plate) “active; equivocal (previous evaluation positive)”.

For `[O]=[V]([OH])([OH])[OH]`, the mutagenic call (End Point: IN VIVO MICRONUCLEUS, Test System: POLYCHROMATIC ERYTHROCYTES, Species: MOUSE, Strain/Sex: (102/E1 X C3H/E1)F1/MALE, Route: IP INJECTION) is “inactive; negative”.
